The record followed here is patent US11160282B2, “Use of a composition and method for reducing bacterial spores in pulp suspension” (Kemira Oyj, priority 2016, dated 2021).

Holding throughout (format): cell-based
One test deals with total aerobes. Put plainly: Example 4 (reference): laboratory test, broke sample, total aerobes count. As to conditions: broke 1.0% consistency, pH 7.8, ORP +146 mV; 10 ppm active chlorine, 1 day contact time; untreated 650 000 cfu/ml. The protocol: (§1) This laboratory test was performed in order to test killing effect of sodium hypochlorite against total aerobes and aerobic spores in broke sample (consistency 1.0%, pH 7.8, ORP +146 mV) taken from an alkaline board machine, which produces 3-ply food packaging board. Total aerobes and aerobic spore counts were quantitated by using plate count agar (+45° C./+37° C., 2 days incubation). Prior to the bacterial spore determination, samples were pasteurized at +80° C. for 20 min.

Test [1] has as its system aerobic spores. Briefly: Example 4 (reference): laboratory test, broke sample, aerobic spore count. As to conditions: broke 1.0% consistency, pH 7.8, ORP +146 mV; 10 ppm active chlorine, 1 day contact time; untreated 70 cfu/ml. The procedure:
as §1

The subject of test [2] is aerobic spores. Briefly: Example 5: pilot paper machine test, aerobic spores in dry paper (ISO 8784-1). As to conditions: glutaraldehyde alone, 50 ppm as active agent, 5 min post-treatment of pulp suspension (reference paper). The procedure: This test was performed in a pilot paper machine producing 1-ply paper. Aim of the test was to verify efficacy of the invention to provide a low quantity of aerobic bacteria and aerobic bacterial spores in dry paper end-product. Composition 1-5 comprising 40 weight-% of dodecylamine, 40 weight-% of dipropylene glycol and 20 weight-% of water was used according to the invention. It was dosed as 100, 150 or 300 mg/l into pulp suspension with 2.25% consistency. The pulp suspension was then mixed 120 rpm for 30 min at +40° C. The pulp suspension was made from a batch of authentic, spore-contaminated folding-box board with average spore content of 7000 cfu/gram of dry board. All pulp suspensions in the pilot paper machine were also post-treated (5 min, 120 rpm) with glutaraldehyde (dose: 50 ppm as active agent) in order to maintain control of vegetative bacterial cells in the pilot machine. Total aerobic bacteria (without pasteurization) and aerobic spores (with pasteurization step at +82° C. for 10 min) were quantified from the dry paper end product according to the ISO 8784-1 standard for microbiological examination of paper and board.

As for `OCl` [Sodium hypochlorite, sodium hypochlorite], the total aerobes with total aerobes is 390 000 cfu/ml. In the test on aerobic spores [1], this compound registered an aerobic spores of 60 cfu/ml. With `O=CCCCC=O` [glutaraldehyde], in the test on aerobic spores [2], the “effect on spore contamination in the produced paper” value is recorded as “not alone capable to lower spore contamination”.
